Data on 35 compounds can be found in patent publication US11286268B1, “EIF4E-inhibiting compounds and methods” (EFFECTOR THERAPEUTICS, INC., priority 2019, dated 2022).

Where two headings read alike, the source gives them in different places.

This test addresses recombinant eIF4E (Homo sapiens (Human), UniProt P06730). As to the kind of experiment: Fluorescence polarization competition assay for eIF4E binding potency. A digest of the protocol: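 IC50 values reflect 50% displacement of 20 nM EDA-m7GDP-ATTO-550 from 75 nM eIF4E, measured by fluorescence polarization after 30 min at room temperature. Buffer: 20 mM Tris pH 7.5, 100 mM NaCl, 1 mM DTT, 0.02% Tween-20; 1% DMSO.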
Background: Fluorescence polarisation rises when a labelled molecule tumbles more slowly, as on binding a larger partner.

Where [1] appears, read: fluorescence polarization competition, 75 nM recombinant eIF4E, 20 nM EDA-m7GDP-ATTO-550, IC50 class, read-out: elF4E FP.
Where [2] appears, read: inhibition of eIF4E/EDA-m7GDP-ATTO-550 binding by 50%, Table 4B calculated values, read-out: IC50.
[3] abbreviates: inhibition of eIF4E/EDA-m7GDP-ATTO-550 binding, calculated IC50 values, Table 4B, read-out: IC50.

Sequence of recombinant eIF4E (P06730 whole entry): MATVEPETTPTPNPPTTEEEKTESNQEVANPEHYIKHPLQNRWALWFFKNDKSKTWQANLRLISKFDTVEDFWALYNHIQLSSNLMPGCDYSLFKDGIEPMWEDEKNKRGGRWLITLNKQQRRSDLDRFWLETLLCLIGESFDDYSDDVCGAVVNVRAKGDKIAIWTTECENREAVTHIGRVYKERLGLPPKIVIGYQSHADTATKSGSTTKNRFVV

As to `Cc1cc(-c2cc(Cl)ccc2OCCn2c(C)nc3cc(CN(C)C)c(C)c(C#N)c3c2=O)c2scc(C(=O)O)c2n1` [compound 650], the IC50 is less than 50 nM under setting [1] and 28.3 nM under setting [2]. Taken in the same sequence, the figures for `Cc1nc2c(N3CCN(CCCC(F)(F)F)CC3)ncc(C#N)c2c(=O)n1CCOc1ccc(Cl)cc1-c1ccnc2c(C(=O)O)csc12` [compound 843] were less than 50 nM and 13.1 nM. Turning to `CCOP(=O)(OCC)c1csc2c(-c3cc(Cl)ccc3OCCn3c(C)nc4cc(C(F)(F)F)c(N5CCN(C6CC6)CC5)c(C#N)c4c3=O)ccnc12` [compound 1614], the IC50 under setting [3] is 31.4 nM. With `Cc1cc(-c2cc(Cl)ccc2OCCn2c(C)nc3cc(C(F)(F)F)c(N4CCN(C)CC4)c(C#N)c3c2=O)c2scc(C(O)C(F)(F)F)c2n1` (stereo not drawn) [compound 1080], the IC50 runs as follows: under setting [1], 50 to 1000 nM; under setting [2], 105 nM.

In the case of `Cc1cc(-c2c(C(F)F)cc3nc(C)n(CCOc4ccc(Cl)cc4-c4cc(C)nc5c(C(=O)O)csc45)c(=O)c3c2C#N)ccn1` [compound 1386], the IC50 under setting [3] is 12.8 nM. For `Cc1nc2cc(C(F)(F)F)c(N3CCN(C)CC3)c(C#N)c2c(=O)n1CCOc1ccc(Cl)cc1-c1cccc(C(=O)O)c1` [compound 374], the IC50 is, setting by setting: under setting [1], less than 50 nM; under setting [2], 20.5 nM. Taken in the same sequence, the figures for `N#Cc1cc2c(=O)n(CCOc3ccc(Cl)cc3-c3cccc(C(=O)O)c3)cnc2cn1` [compound 66] were 50 to 1000 nM and 187 nM. Turning to `Cc1cc(-c2cc(Cl)ccc2OCCn2c(C)nc3ccc(N(C)C)nc3c2=O)c2scc(C(=O)O)c2n1` [compound 679], the IC50 was 50 to 1000 nM under setting [1] and 160 nM under setting [2]. On the same counts, the results for `Cc1cc(-c2cc(Cl)ccc2OCCn2c(C)nc3cnc(Cl)c(C#N)c3c2=O)c2scc(C(=O)O)c2n1` [compound 792] are less than 50 nM and 2.44 nM. For `Cc1nc2cnc(N3CC[C@H]4CN(CC(F)F)CC[C@H]43)c(C#N)c2c(=O)n1CC#Cc1ccc(Cl)cc1-c1ccnc2c(C(=O)O)csc12` [compound 1556], the IC50 under setting [3] is 49.9 nM. Take `Cc1nc2cc(C(F)(F)F)c(N3CCN(C)CC3)c(C#N)c2c(=O)n1CCOc1ccc(Cl)cc1-c1cc(C(=O)O)nc(N(C)C)c1` [compound 1225]: the IC50 runs as follows: under setting [1], less than 50 nM; under setting [3], 3.12 nM. With `Cc1nc2cnc(N3CCN(C4(CF)CC4)CC3)c(C#N)c2c(=O)n1CCOc1ccc(Cl)cc1-c1ccnc2c(C(=O)O)csc12` [compound 1336], the IC50 under setting [3] was 13 nM. Take `Cc1c(Cl)c2cc(C(F)(F)F)cc(C#N)c2c(=O)n1CCOc1ccc(Cl)cc1-c1ccnc2c(C(=O)O)csc12` [compound 218]: the IC50 was less than 50 nM under setting [1] and 16.9 nM under setting [2].

As to `Cc1cc(-c2cc(Cl)ccc2OCCn2c(C)nc3cc(C(F)(F)F)c(CN4CCS(=O)(=O)CC4)c(C#N)c3c2=O)c2scc(C(=O)O)c2n1` [compound 1377], the IC50 under setting [3] was 44 nM. Consider `CCc1nc2cnccc2c(=O)n1CCOc1ccc(Cl)cc1-c1cccc(C(=O)O)c1` [compound 70], for which the IC50 is 50 to 1000 nM under setting [1] and 432 nM under setting [2]. As to `Cc1cc(-c2cc(Cl)ccc2OCCn2c(C)nc3cnc(C4CCCC(F)(F)C4)c(C#N)c3c2=O)c2scc(C(=O)O)c2n1` (stereo not drawn) [compound 931], the IC50 was less than 50 nM under setting [1] and 13.7 nM under setting [2]. Regarding `Cc1cc(-c2cc(Cl)ccc2OCCn2c(C)nc3cc(C(F)(F)F)c(Cc4cccnc4)c(Cl)c3c2=O)c2scc(C(=O)O)c2n1` [compound 399], the IC50 is, setting by setting: under setting [1], 50 to 1000 nM; under setting [2], 69.9 nM. Regarding `Cc1nc2cnc(N(C)[C@H]3CC[C@@H](N(C)CCF)CC3)c(C#N)c2c(=O)n1CC#Cc1ccc(Cl)cc1-c1ccnc2c(C(=O)O)csc12` [compound 1533], the IC50 under setting [3] was 21.7 nM. Take `O=C(O)c1cccc(-c2cc(Cl)ccc2OCCn2cnc3cnc(-n4cccn4)cc3c2=O)c1` [compound 136]: the IC50 under setting [1] lay in the range of 50 to 1000 nM and the IC50 under setting [2] was 199 nM. For `Cc1nc2cnc(N(C)C3CCN(C)C3)c(C#N)c2c(=O)n1CCOc1ccc(Cl)cc1-c1ccnc2c(C(=O)O)csc12` (stereo not drawn) [compound 1323], the IC50 under setting [3] was 73 nM. Turning to `COc1ncc2nc(C)n(CCOc3ccc(Cl)cc3-c3cc(C)nc4c(C(=O)O)csc34)c(=O)c2c1C#N` [compound 897], the IC50 under setting [1] is less than 50 nM and the IC50 under setting [2] was 1.4 nM. Consider `O=C(O)c1cccc(-c2cc(Cl)ccc2OCCn2ccc3nnccc3c2=O)c1` [compound 15], for which the IC50 is, setting by setting: under setting [1], greater than 1000 nM; under setting [2], 1740 nM. Taken in the same sequence, the figures for `Cc1cc(-c2cc(Cl)ccc2OCCn2c(C)nc3cc(C(F)F)c(CN4CCN(C)CC4)c(C#N)c3c2=O)c2scc(C(=O)O)c2n1` [compound 646] were less than 50 nM and 41.4 nM.

With `CCc1cc(-c2cc(Cl)ccc2OCCn2c(C)nc3cnc(N4CCC(O)C4)c(C#N)c3c2=O)c2scc(C(=O)O)c2n1` (stereo not drawn) [compound 1235], the IC50 under setting [1] is less than 50 nM and the IC50 under setting [3] was 6.32 nM. Turning to `Cc1ccc(-c2c(C(F)(F)F)cc3nc(C)n(CCOc4ccc(Cl)cc4-c4cc(C)nc5c(C(=O)O)csc45)c(=O)c3c2C#N)nn1` [compound 967], the IC50 under setting [1] was less than 50 nM and the IC50 under setting [2] is 12.2 nM.

`Cc1cc(-c2cc(Cl)ccc2OCCn2c(C)nc3cc(C(F)(F)F)c(N(C)C)c(C#N)c3c2=O)c2scc(C(=O)O)c2n1` [compound 996]: the IC50 under setting [1] is less than 50 nM and the IC50 under setting [2] was 31.6 nM. In the case of `Cc1nc2cc(C(F)(F)F)c(N3CCN(C)CC3)c(C#N)c2c(=O)n1CCOc1ccc(Cl)cc1-c1ccnc2c(-c3nn[nH]n3)csc12` [compound 1228], the IC50 was less than 50 nM under setting [1] and 1.11 nM under setting [3]. With `CCN(CC)S(=O)(=O)c1ccc2nc(C)n(CCOc3ccc(Cl)cc3-c3ccnc4c(C(=O)O)csc34)c(=O)c2c1C#N` [compound 250], the IC50 under setting [1] was less than 50 nM and the IC50 under setting [2] was 43.7 nM. For `Cc1nc2cnc(N3CCN(C4(C(F)F)CC4)CC3)c(C#N)c2c(=O)n1CC#Cc1ccc(Cl)cc1-c1ccnc2c(C(=O)O)csc12` [compound 1366], the IC50 under setting [3] was 14.3 nM. As to `Cc1cc(-c2cc(Cl)ccc2OCCn2c(C)nc3cc(C(F)(F)F)c(-c4ccncc4F)c(C#N)c3c2=O)c2scc(C(=O)O)c2n1` [compound 344], the IC50 under setting [1] was less than 50 nM and the IC50 under setting [2] was 32.1 nM.

Turning to `CCN(c1ncc2nc(C)n(CCOc3ccc(Cl)cc3-c3ccnc4c(C(=O)O)csc34)c(=O)c2c1C#N)C1CCN(CC(F)F)CC1` [compound 1433], the IC50 under setting [3] is 27.4 nM. `CCc1cc(-c2cc(Cl)ccc2OCCn2c(C)nc3cc(C(F)(F)F)c(N4CCN(C)CC4)c(C#N)c3c2=O)cc(C(=O)O)n1` [compound 1223]: the IC50 runs as follows: under setting [1], less than 50 nM; under setting [3], 2.79 nM. On to `CC(=O)NS(=O)(=O)c1csc2c(-c3cc(Cl)ccc3OCCn3c(C)nc4c(F)cc(C(F)F)c(C#N)c4c3=O)cc(C)nc12` [compound 570], for which the IC50 was less than 50 nM under setting [1] and 5.57 nM under setting [2]. For `Cc1cc(-c2cc(Cl)ccc2C#CCn2c(C)nc3cc(C(F)(F)F)c(Cl)c(C#N)c3c2=O)c2scc(C(=O)O)c2n1` [compound 561], the IC50 by setting is: under setting [1], 50 to 1000 nM; under setting [2], 56.2 nM.

With `Cc1sc2c(-c3cc(Cl)ccc3OCCn3c(C)nc4cc(C(F)(F)F)c(CC5CN(C)C5)c(C#N)c4c3=O)ccnc2c1C(=O)O` [compound 1283], under setting [3], the IC50 is 33.5 nM.
